Test results as given in patent US8404677B2, “Kinase inhibitors” (Genosco, priority 2009, dated 2013).
Structures can show the parent of a compound that is named as a salt.

Tests used:
[1] = tested on: MV4-11 cells expressing human FLT3-ITD; test: Cell viability assay: FLT3-ITD-positive cells; format: cell-based; conditions: for IC50: Homo sapiens, 72-hour incubation, read-out: MV-4-11 cell viability IC50; for inhibition level compared with Vandetinib and Sunitinib: FLT3 ITD induced cancer cell line
Description: Compounds of the invention were tested for cell viability effect on MV4-11 cells. For cell viability assay, MV4-11 cells expressing human FLT3-ITD were obtained from the American Type Culture Collection (ATCC, Manassas, Va.). This cell line was maintained with an Roswell Park Memorial Institute (RPMI) medium (HyClone™) containing 10 bovine calf serum (BCS; Hyclone™) supplemented iron. […] CellTiter Aqueous assay (Promega™) was also performed in parallel as an orthogonal assay. IC50 values were calculated using nonlinear regression and defined as the concentration needed for a 50 reduction in luminescence or absorbance treated versus untreated control cells (Prism™ Software).

MTC-TT = test: Cell viability assay: RET inhibition; format: cell-based, human; conditions: for IC50: Homo sapiens, 48 h, two days after drug treatment; for inhibition level compared with Vandetinib and Sunitinib: RET induced cancer cell line
Description: In order to address RET dependent cell viability, the medullary thyroid carcinoma cell line, MTC-TT representing MEN2A was utilized to test compounds of the invention. MTC-TT were cultured at RPMI containing 15 bovine calf serum (Hyclon™ of Thermo™) and supplemented with 2 mM L-Glutamine. The cells were grown at a density of 5×10^4 cells/100 μL/well in duplicate in 96-well plates for one day and treated with different concentrations of test compound. Cell viability for MTC-TT two days after drug treatment was measured by Cell Titer 96 Aqueous One Solution Reagent (Promega™) according to the manufacture instructions. The IC50 value of test compound was calculated at Gradpad Prism 5 unless specified otherwise.

truncated human FLT3 = target: T1, truncated human FLT3 (Homo sapiens, UniProt P36888); test: Inhibition of enzymatic kinase activity (LANCE Ulight); format: biochemical
T1 construct: truncated human FAK, RET, FLT3, JAK2, and LRRK2 (CARNA BIOSCIENCES™); purchased Carna Biosciences
T1 sequence (P36888 564-993 limits assumed): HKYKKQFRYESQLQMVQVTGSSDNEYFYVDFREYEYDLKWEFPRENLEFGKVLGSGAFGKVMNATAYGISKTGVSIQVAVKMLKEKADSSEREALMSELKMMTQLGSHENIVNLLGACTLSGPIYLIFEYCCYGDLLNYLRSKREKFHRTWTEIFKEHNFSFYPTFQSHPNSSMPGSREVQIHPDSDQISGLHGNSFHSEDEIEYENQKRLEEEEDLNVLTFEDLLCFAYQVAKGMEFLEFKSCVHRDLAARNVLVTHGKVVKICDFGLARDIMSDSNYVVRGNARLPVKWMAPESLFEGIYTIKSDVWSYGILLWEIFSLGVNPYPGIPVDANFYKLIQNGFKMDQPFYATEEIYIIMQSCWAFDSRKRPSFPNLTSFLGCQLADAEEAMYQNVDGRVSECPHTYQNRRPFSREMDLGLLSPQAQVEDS
Description: (§1) Inhibition of Enzymatic SYK, ZAP70, PYK2, FAK, PIM1, RET, FLT3, JAK2 and LRRK2 Kinase Activity
(§2) Compounds of the invention were initially diluted to 10 mM in 100% DMSO (CALBIOCHEM™) for storage and made into kinase buffer solution to create a compound concentration ranging from 1 uM and 10 uM. Serial dilutions of compounds of the invention were dispensed into a 96-well plate (GREINER BIOSCIENCES™) at 6 μL each. Purified full-length human SYK, ZAP70, PIM1, PYK2 and truncated human FAK, RET, FLT3, JAK2, and LRRK2 (CARNA BIOSCIENCES™) were diluted in kinase buffer and added to the compound solutions and pre-incubated for 30 minutes at room temperature (1 hour for PYK2). […] The reaction mixture was incubated for 1 hour (2 hours for PYK2). Following the incubation, the stop solution made with EDTA, water, and Lance detection buffer ([…]™) was added (12 μL each) to stop phosphorylation.

truncated human JAK2 = target: T2, truncated human JAK2 (Homo sapiens, UniProt O60674); test: as above; format: biochemical
T2 construct: truncated human FAK, RET, FLT3, JAK2, and LRRK2 (CARNA BIOSCIENCES™); purchased Carna Biosciences
Description: as §1, §2

truncated human RET = target: T3, truncated human RET (Homo sapiens, UniProt P07949); test: as above; format: biochemical
T3 construct: truncated human FAK, RET, FLT3, JAK2, and LRRK2 (CARNA BIOSCIENCES™); purchased Carna Biosciences
T3 sequence (P07949 658-1114 limits assumed): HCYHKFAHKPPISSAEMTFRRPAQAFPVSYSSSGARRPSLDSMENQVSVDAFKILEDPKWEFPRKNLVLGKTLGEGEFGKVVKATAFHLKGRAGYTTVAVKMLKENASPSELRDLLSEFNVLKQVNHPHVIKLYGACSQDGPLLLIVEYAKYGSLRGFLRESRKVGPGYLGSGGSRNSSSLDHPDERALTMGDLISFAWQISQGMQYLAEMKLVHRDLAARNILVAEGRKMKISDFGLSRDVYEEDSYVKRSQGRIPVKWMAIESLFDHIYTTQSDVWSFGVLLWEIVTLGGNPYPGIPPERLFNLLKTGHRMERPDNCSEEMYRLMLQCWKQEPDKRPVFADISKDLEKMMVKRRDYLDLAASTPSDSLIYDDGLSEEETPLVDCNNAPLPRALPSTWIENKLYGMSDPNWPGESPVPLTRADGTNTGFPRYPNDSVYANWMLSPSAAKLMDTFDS
Description: as §1, §2

[2] = tested on: HEL cells expressing human JAK2 V617F; test: Cell viability assay: JAK2 inhibition; format: cell-based; conditions: Homo sapiens, 72-hour incubation
Description: Compounds of the invention were tested for cell viability effect on HEL cells. For cell viability assay, HEL cells expressing human JAK2 V617F were obtained from the American Type Culture Collection (ATCC, Manassas, Va.). This cell line was maintained with an Roswell Park Memorial Institute (RPMI) medium (HyClone™) containing 10 bovine calf serum (BCS; Hyclone™) supplemented iron. The HEL cells were seeded at 2×10^4 cells in 96 well culture plates, and serially diluted compound was then added. After a 72-hour incubation period at 37° C., Cell viability was measured using the ATPLite 1 step assay (Perkin-Elmer™) that is based on the quantification of ATP from viable cells. CellTiter Aqueous assay (Promega™) was also performed in parallel as an orthogonal assay. IC50 values were calculated using nonlinear regression and defined as the concentration needed for a 50 reduction in luminescence or absorbance treated versus untreated control cells (Prism™ Software).

PYK2 = PYK2 (Homo sapiens, UniProt Q14289); test: Inhibition of enzymatic kinase activity (LANCE Ulight); format: biochemical; parameters: Purified full-length human SYK, ZAP70, PIM1, PYK2; purchased Carna Biosciences; conditions: at 1 μM concentration; read-out: PYK2 percentage inhibition
Description: as §1, §2

SYK = SYK (Homo sapiens, UniProt P43405); test: as above; format: biochemical; parameters: Purified full-length human SYK, ZAP70, PIM1, PYK2; purchased Carna Biosciences; conditions: at 1 μM concentration; read-out: SYK percentage inhibition
Description: as §1, §2

human PIM1 = target: T4, human PIM1 (Homo sapiens, UniProt P11309); test: as above; format: biochemical; conditions: at 1 μM concentration; read-out: PIM1 percentage inhibition
T4 construct: Purified full-length human SYK, ZAP70, PIM1, PYK2; purchased Carna Biosciences
Description: as §1
as §2, with “phosphorylation. […] Substrate phosphorylation was a function of the 665 nm emission measured following the addition of the detection solution and 50 minutes of incubation.” for “phosphorylation.”

human ZAP70 = target: T5, human ZAP70 (Homo sapiens, UniProt P43403); test: as above; format: biochemical; conditions: at 1 μM concentration; read-out: ZAP70 percentage inhibition
T5 construct: Purified full-length human SYK, ZAP70, PIM1, PYK2; purchased Carna Biosciences
T5 sequence (P43403 1-619): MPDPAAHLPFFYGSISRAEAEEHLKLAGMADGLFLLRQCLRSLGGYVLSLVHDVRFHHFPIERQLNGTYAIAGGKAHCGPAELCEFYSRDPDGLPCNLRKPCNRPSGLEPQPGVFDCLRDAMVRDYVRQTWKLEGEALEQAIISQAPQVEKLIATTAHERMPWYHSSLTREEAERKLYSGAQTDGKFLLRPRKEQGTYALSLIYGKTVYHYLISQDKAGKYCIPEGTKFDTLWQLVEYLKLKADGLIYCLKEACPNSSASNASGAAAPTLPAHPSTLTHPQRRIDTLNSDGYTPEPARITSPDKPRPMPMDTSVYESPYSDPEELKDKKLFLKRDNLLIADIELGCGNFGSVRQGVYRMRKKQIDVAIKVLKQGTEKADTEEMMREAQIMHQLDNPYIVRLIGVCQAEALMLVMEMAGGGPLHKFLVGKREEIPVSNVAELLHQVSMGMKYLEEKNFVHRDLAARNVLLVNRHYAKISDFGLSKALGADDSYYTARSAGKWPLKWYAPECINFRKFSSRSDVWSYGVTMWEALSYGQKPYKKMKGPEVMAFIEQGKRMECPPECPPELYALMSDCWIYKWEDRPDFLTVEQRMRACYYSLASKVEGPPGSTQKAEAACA
Description: as §1, §2

truncated human FAK = target: T6, truncated human FAK (Homo sapiens, UniProt Q05397); test: as above; format: biochemical; conditions: at 1 μM concentration; read-out: FAK percentage inhibition
T6 construct: truncated human FAK, RET, FLT3, JAK2, and LRRK2 (CARNA BIOSCIENCES™); purchased Carna Biosciences
Description: as §1, §2

T6 sequence (Q05397 376-1052 limits assumed): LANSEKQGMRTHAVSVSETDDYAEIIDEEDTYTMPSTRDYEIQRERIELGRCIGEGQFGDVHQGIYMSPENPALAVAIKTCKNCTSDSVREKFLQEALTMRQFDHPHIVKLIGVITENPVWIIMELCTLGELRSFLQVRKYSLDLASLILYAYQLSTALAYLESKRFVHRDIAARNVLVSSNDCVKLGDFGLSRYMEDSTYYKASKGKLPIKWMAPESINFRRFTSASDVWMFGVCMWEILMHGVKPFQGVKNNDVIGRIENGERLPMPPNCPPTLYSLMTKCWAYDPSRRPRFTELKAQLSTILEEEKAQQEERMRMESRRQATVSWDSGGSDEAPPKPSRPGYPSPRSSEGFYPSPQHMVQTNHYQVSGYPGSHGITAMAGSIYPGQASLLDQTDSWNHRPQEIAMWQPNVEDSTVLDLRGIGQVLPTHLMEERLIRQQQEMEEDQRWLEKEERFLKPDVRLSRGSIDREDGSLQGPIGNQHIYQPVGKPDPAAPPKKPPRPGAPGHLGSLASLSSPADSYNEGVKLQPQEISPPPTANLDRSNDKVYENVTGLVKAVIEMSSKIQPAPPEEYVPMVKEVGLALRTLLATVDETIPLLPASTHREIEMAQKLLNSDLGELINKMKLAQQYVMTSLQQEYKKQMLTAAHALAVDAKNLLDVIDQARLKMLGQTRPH
T4 sequence (P11309 whole entry): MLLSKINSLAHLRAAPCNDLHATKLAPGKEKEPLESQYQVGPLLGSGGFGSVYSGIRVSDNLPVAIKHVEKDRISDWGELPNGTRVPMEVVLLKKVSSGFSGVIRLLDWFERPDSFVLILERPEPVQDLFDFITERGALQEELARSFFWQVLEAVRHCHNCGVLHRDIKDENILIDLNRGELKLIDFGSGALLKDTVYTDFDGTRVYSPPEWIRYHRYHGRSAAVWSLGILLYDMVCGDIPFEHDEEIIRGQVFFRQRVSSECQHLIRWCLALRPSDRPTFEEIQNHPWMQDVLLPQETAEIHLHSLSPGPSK
Chain of PYK2 (Q14289 whole entry): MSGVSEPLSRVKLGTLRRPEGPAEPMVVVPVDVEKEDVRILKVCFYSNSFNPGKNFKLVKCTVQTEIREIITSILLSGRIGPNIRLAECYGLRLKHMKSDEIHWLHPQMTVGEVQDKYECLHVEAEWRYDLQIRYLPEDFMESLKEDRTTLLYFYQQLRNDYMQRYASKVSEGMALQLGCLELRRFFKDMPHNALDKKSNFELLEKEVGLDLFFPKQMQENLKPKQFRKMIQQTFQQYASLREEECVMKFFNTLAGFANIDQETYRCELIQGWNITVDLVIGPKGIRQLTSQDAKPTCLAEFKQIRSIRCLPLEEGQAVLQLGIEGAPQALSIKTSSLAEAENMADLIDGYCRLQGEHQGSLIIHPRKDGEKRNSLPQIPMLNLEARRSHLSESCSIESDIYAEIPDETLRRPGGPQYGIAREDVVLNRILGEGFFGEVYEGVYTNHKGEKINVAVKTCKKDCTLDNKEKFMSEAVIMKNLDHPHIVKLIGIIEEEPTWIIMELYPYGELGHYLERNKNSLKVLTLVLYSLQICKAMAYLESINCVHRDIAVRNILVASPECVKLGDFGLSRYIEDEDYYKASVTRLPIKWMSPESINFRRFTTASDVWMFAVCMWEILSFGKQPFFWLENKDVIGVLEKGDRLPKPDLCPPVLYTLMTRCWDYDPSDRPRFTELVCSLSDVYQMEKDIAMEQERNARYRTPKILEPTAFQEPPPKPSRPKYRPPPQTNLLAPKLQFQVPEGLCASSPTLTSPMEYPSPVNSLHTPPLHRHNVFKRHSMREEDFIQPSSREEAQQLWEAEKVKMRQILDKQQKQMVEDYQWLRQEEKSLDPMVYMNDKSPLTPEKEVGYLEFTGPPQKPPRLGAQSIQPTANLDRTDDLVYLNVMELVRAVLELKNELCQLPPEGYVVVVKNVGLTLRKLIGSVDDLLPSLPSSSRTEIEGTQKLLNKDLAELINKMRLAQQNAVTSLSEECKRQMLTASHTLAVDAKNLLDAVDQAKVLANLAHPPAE
T2 sequence (O60674 826-1132 limits assumed): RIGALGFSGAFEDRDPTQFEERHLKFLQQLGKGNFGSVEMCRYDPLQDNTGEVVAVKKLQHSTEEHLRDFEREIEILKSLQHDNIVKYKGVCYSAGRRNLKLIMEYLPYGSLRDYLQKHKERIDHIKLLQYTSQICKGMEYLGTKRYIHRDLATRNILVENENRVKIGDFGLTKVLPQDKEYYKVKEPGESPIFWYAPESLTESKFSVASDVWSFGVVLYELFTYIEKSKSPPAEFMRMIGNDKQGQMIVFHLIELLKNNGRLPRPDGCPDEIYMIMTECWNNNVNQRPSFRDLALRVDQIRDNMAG

IC50 ([1]; MV4-11) [nM] | inhibition at 1 µM (PYK2) [%] | inhibition at 1 µM (SYK) [%] | inhibition at 1 µM (human PIM1) [%] | inhibition at 1 µM (human ZAP70) [%] | inhibition at 1 µM (truncated human FAK) [%] | Compound | IC50 (MTC-TT) [nM] | further results
3.8 |  |  |  |  |  | CCN(CC)CCNC(=O)c1c(C)[nH]c(/C=C2\C(=O)Nc3ccc(F)cc32)c1C [Sunitinib, reference compound] | 117 | 
 | 92.8 | 95.7 | 71.2 | 54.6 | 92.9 | NC1CCN(c2nc(Nc3cccc(Br)c3)c3c(=O)[nH]ccc3n2)CC1 [Compound 84, 2-(4-aminopiperidin-1-yl)-4-(3-bromophenylamino)pyrido[4,3-d]pyrimidin-5(6H)-one hydrochloride] |  | 
0.1 |  |  |  |  |  | Cl.O=c1[nH]ccc2nc(N[C@H]3CCNC3)nc(Nc3ccc(N4CCOCC4)cc3)c12 [Compound 136, (S)-4-(4-morpholinophenylamino)-2-(pyrrolidin-3-ylamino)pyrido[4,3-d]pyrimidin-5(6H)-one hydrochloride] | 33 | inhibition level compared with Vandetinib and Sunitinib [1]: inhibition level greater than those exhibited by Vandetinib and Sunitinib; inhibition level compared with Vandetinib and Sunitinib (MTC-TT): inhibition level greater than those exhibited by Vandetinib and Sunitinib; IC50 (truncated human FLT3): 0.1 nM; IC50 (truncated human JAK2): 3.9 nM; IC50 (truncated human RET): 1.3 nM
 | 1 | 3 | 7.3 | 6.2 | 4.9 | Cn1ccc2nc(N3CCC(O)CC3)nc(Nc3cccc(C(F)(F)F)c3)c2c1=O [Compound 168, 2-(4-hydroxypiperidine-1-yl)-6-methyl-4-(3-(trifluoromethyl)phenylamino)pyrido[4,3-d]pyrimidin-5(6H)-one] |  | 
 | 39.5 | 95.1 | 12.7 | 49.3 | 80.8 | CS(=O)(=O)c1ccc(Nc2nc(N3CCC(O)CC3)nc3cc[nH]c(=O)c23)cc1 [Compound 126, 2-(4-hydroxypiperidin-1-yl)-4(4-(methylsulfonyl)phenylamino)pyrido[4,3d]pyrimidin-5(6H)-one] |  | 

More lines, now with the values behind:

Compound | IC50 ([1]; MV4-11) [nM] | inhibition at 1 µM (PYK2) [%] | inhibition at 1 µM (SYK) [%] | inhibition at 1 µM (human PIM1) [%] | inhibition at 1 µM (human ZAP70) [%] | inhibition at 1 µM (truncated human FAK) [%] | IC50 (MTC-TT) [nM] | further results
Cl.O=c1[nH]ccc2nc(N[C@H]3CCNC3)nc(Nc3ccc(C(F)(F)F)cc3)c12 [Compound 8, (S)-2-(pyrrolidin-3-ylamino)-4-(4-(trifluoromethyl)phenylamino)pyrido[4,3-d]pyrimidin-5(6H)-one hydrochloride] | 0.1 |  |  |  |  |  | 14 | inhibition level compared with Vandetinib and Sunitinib [1]: inhibition level greater than those exhibited by Vandetinib and Sunitinib; times higher inhibition in IC50 than Sunitinib and PKC-412 ([1]; MV4-11): 10-30 time; times higher inhibition in IC50 than Vandetanib and Sunitinib (MTC-TT; MTC-TT): 6 time; inhibition level compared with Vandetinib and Sunitinib (MTC-TT): inhibition level greater than those exhibited by Vandetinib and Sunitinib; IC50 (truncated human FLT3): 0.2 nM; IC50 (truncated human JAK2): 12.7 nM; IC50 (truncated human RET): 2.6 nM
CNC(=O)c1cc(Oc2ccc(NC(=O)Nc3ccc(Cl)c(C(F)(F)F)c3)cc2)ccn1 [Sorafenib, reference compound] |  |  |  |  |  |  |  | IC50 [2]: > 1000 nM
N[C@@H]1CCN(c2nc(Nc3cccc(C(F)(F)F)c3)c3c(=O)[nH]ccc3n2)C1 [Compound 7, (R)-2-(3-aminopyrrolidin-1-yl)-4-(3-(trifluoromethyl)phenylamino)pyrido[4,3-d]pyrimidin-5(6H)-one hydrochloride] |  | 84.9 | 92.6 | 51.4 | 42 | 83.5 |  | 
